Like-named read-outs stand apart in the source and are kept apart here.
Key:
Type in all cases: biochemical
CYP3A4 [1] = biological target: T1, CYP3A4 (Homo sapiens, UniProt P08684); assay: Determination of IC50 against CYP3A4 by measurement of inhibition of midazolam metabolism (human liver microsomes, 1-hydroxymidazolam by LC-MS/MS); design: 0.1 mg/mL human liver microsomes; settings: 2 μM midazolam, 0.1 mg/mL human liver microsomes
Outline: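 Human liver microsomes (0.1 mg/mL) incubated 8 min with 2 μM midazolam and 1 mM NADPH in 100 mM potassium phosphate, pH 7.4. 1-Hydroxymidazolam quantified by LC-MS/MS (MRM) as peak area ratio to internal standard against a metabolite standard curve.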

CYP3A4 [2] = biological target: T1, CYP3A4; assay: Determination of IC50 against CYP3A4 by measurement of inhibition of testosterone metabolism (human liver microsomes, 6-β-OH-testosterone by LC-MS/MS); design: 0.1 mg/mL human liver microsomes; settings: read-out: IC50 (Testo.)
Outline: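 6-β-OH-testosterone formation was read by LC-MS/MS (MRM, internal standard, standard curve) after eight minutes. Reaction contained testosterone 25 μM, NADPH 1 mM and microsomal protein 0.1 mg/mL in pH 7.4 potassium phosphate (100 mM).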

CYP3A4 [3] = biological target: T1, CYP3A4; assay: Determination of compound Kiapp against recombinant CYP3A4 enzyme (BFC fluorescent substrate)
Outline: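 Kiapp derived from initial velocities over the first 5 min of BFC (5 uM) oxidation, using Morrison's tight-binding equation for non-partial and Szedlacsek's for partial inhibitors. Inhibitor first pre-incubated ≥30 min with CYP3A4 (5.5 or 8 nM, ±b5) in pH 7.0 phosphate/TCEP/2% DMF at room temperature; 200 uM NADPH initiated.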

[4] = Baculo. enzyme preparation, read-out: Kiapp (BFC, Baculo.)
[5] = Super. enzyme preparation, read-out: Kiapp (BFC, Super.)

T1 sequence (P08684 whole entry): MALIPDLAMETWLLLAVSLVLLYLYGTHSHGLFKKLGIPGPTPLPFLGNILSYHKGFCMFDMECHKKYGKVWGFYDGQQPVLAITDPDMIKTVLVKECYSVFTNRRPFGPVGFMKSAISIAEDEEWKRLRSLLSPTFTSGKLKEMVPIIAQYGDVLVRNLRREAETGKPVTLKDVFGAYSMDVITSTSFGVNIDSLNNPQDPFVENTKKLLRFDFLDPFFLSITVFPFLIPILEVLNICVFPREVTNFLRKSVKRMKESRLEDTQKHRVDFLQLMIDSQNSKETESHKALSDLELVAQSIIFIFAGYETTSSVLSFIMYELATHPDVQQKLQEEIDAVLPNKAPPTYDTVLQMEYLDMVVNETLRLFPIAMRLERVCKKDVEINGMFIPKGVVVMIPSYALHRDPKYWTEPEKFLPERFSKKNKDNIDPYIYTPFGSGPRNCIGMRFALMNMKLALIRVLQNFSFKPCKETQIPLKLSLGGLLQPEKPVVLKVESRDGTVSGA

SMILES	IC50 (CYP3A4 [1]) [nM]	IC50 (CYP3A4 [2]) [nM]	Ki (CYP3A4 [3]; [4]) [nM]	Ki (CYP3A4 [3]; [5]) [nM]
COc1cncc(NS(=O)(=O)c2ccccc2C(=O)N2CCC(c3ccccc3)CC2)c1 [Example 231, N-(5-methoxypyridin-3-yl)-2-[(4-phenylpiperidin-1-yl)carbonyl]benzenesulfonamide]	20	31	59.1	8.9
COc1cncc(NS(=O)(=O)c2ccccc2C(=O)N(C)CCC(C)C)c1 [Example 338, 2-{[(5-methoxypyridin-3-yl)amino]sulfonyl}-N-methyl-N-(3-methylbutyl)benzamide]	23	30	24	6.8
CCCN(CCOC)C(=O)c1ccccc1S(=O)(=O)Nc1cncc(OC)c1 [Example 246, N-(2-methoxyethyl)-2-{[(5-methoxypyridin-3-yl)amino]sulfonyl}-N-propylbenzamide]	36	72	50.3	18.5
CCOc1ccncc1NS(=O)(=O)c1ccccc1C(=O)N(C)CCOC [Example 160, 2-{[(4-ethoxypyridin-3-yl)amino]sulfonyl}-N-(2-methoxyethyl)-N-methylbenzamide]	129	202	> 1000	163
COCCN(C)C(=O)c1ccccc1S(=O)(=O)Nc1cnccc1C [Example 170, N-(2-methoxyethyl)-N-methyl-2-{[(4-methylpyridin-3-yl)amino]sulfonyl}benzamide]	557	285	> 1000	427
COc1cncc(NS(=O)(=O)c2ccccc2C(=O)NCc2cc(Cl)ccc2F)c1 [Example 151, N-(5-chloro-2-fluorobenzyl)-2-{[(5-methoxypyridin-3-yl)amino]sulfonyl}benzamide]	28	16	120	12.2
Cc1ccncc1NS(=O)(=O)c1ccccc1C(=O)NCc1ccc(F)c(Cl)c1 [Example 168, N-(3-chloro-4-fluorobenzyl)-2-{[(4-methylpyridin-3-yl)amino]sulfonyl}benzamide]	9	18	66	11.7
CC(C)NC(=O)c1ccccc1S(=O)(=O)Nc1cccnc1 [Example 49, N-isopropyl-2-[(pyridin-3-ylamino)sulfonyl]benzamide]	328	> 500	> 1000	–
CCCCN(C)C(=O)c1ccccc1S(=O)(=O)Nc1cncc(OC)c1 [Example 353, N-butyl-2-{[(5-methoxypyridin-3-yl)amino]sulfonyl}-N-methylbenzamide]	18	31	28.1	11.5
CN(C)Cc1ccc(CNC(=O)c2ccccc2S(=O)(=O)Nc2cccnc2)cc1 [Example 84, N-{4-[(dimethylamino)methyl]benzyl}-2-[(pyridin-3-ylamino)sulfonyl]benzamide]	> 750	28	> 1000	464
CCCCOCCCNC(=O)c1ccccc1S(=O)(=O)Nc1cccnc1 [Example 59, N-(3-butoxypropyl)-2-[(pyridin-3-ylamino)sulfonyl]benzamide]	109	117	838	57.4
CCCCC(CO)NC(=O)c1ccccc1S(=O)(=O)Nc1cncc(OC)c1 (centres unmarked) [Example 189, N-[1-(hydroxymethyl)pentyl]-2-{[(5-methoxypyridin-3-yl)amino]sulfonyl}benzamide]	24	48	175	27.4
Cc1cncc(NS(=O)(=O)c2ccccc2C(=O)NCCc2ccccc2Cl)c1 [Example 226, N-[2-(2-chlorophenyl)ethyl]-2-{[(5-methylpyridin-3-yl)amino]sulfonyl}benzamide]	< 3	8	16.4	2.6
COc1cncc(NS(=O)(=O)c2ccccc2C(=O)NCc2cccc(Cl)c2)c1 [Example 192, N-(3-chlorobenzyl)-2-{[(5-methoxypyridin-3-yl)amino]sulfonyl}benzamide]	7	7	23.7	2.7
COc1cncc(NS(=O)(=O)c2ccccc2C(=O)NCCOc2ccccc2)c1 [Example 238, 2-{[(5-methoxypyridin-3-yl)amino]sulfonyl}-N-(2-phenoxyethyl)benzamide]	17	31	230	18
Cc1cncc(NS(=O)(=O)c2ccccc2C(=O)NCC2CCCC2)c1 [Example 334, N-(cyclopentylmethyl)-2-{[(5-methylpyridin-3-yl)amino]sulfonyl}benzamide]	12	17	82.6	9.1

SMILES	IC50 (CYP3A4 [1]) [nM]	IC50 (CYP3A4 [2]) [nM]	Ki (CYP3A4 [3]; [4]) [nM]	Ki (CYP3A4 [3]; [5]) [nM]
O=C(NC1Cc2ccccc2C1)c1ccccc1S(=O)(=O)Nc1cccnc1 [Example 58, N-(2,3-dihydro-1H-inden-2-yl)-2-[(pyridin-3-ylamino)sulfonyl]benzamide]	26.5	25.3	150	9.1
COc1ccc(CNC(=O)c2ccccc2S(=O)(=O)Nc2cccnc2)cc1 [Example 57, N-(4-methoxybenzyl)-2-[(pyridin-3-ylamino)sulfonyl]benzamide]	69.6	93.3	353	35
CN(c1cccnc1)S(=O)(=O)c1ccccc1C(=O)NCc1cccc(F)c1 [Example 357, N-(3-fluorobenzyl)-2-{[methyl(pyridin-3-yl)amino]sulfonyl}benzamide]	32	43	123	30.4
CCN(Cc1ccccc1)C(=O)c1ccccc1S(=O)(=O)Nc1cccnc1 [Example 78, N-benzyl-N-ethyl-2-[(pyridin-3-ylamino)sulfonyl]benzamide]	22	> 750	158	13.8
O=C(NCc1cccc(F)c1)c1ccccc1S(=O)(=O)Nc1cccnc1 [Example 43, N-(3-fluorobenzyl)-2-[(pyridin-3-ylamino)sulfonyl]benzamide]	13.4	21.7	269	16.5
CN(c1cccnc1)S(=O)(=O)c1ccccc1C(=O)N1CCCC(C)(C)C1 [Example 345, 2-[(3,3-dimethylpiperidin-1-yl)carbonyl]-N-methyl-N-pyridin-3-ylbenzenesulfonamide]	75	48	409	135
COc1cccc(OC)c1CNC(=O)c1ccccc1S(=O)(=O)Nc1cccnc1 [Example 45, N-(2,6-dimethoxybenzyl)-2-[(pyridin-3-ylamino)sulfonyl]benzamide]	20	42	382	–
COc1ccncc1NS(=O)(=O)c1ccccc1C(=O)NCCC(C)C [Example 277, 2-{[(4-methoxypyridin-3-yl)amino]sulfonyl}-N-(3-methylbutyl)benzamide]	53	65	459	47.9
COc1cncc(NS(=O)(=O)c2ccccc2C(=O)N[C@@H](C)C(C)(C)C)c1 [Example 210, 2-{[(5-methoxypyridin-3-yl)amino]sulfonyl}-N-[(1S)-122-trimethylpropyl]benzamide]	10	49	286	39.6
O=C(NCC1CCCC1)c1ccccc1S(=O)(=O)Nc1cccnc1 [Example 64, N-(cyclopentylmethyl)-2-[(pyridin-3-ylamino)sulfonyl]benzamide]	30.5	31.8	190	12.8
CCOc1cncc(NS(=O)(=O)c2ccccc2C(=O)NC2CCCCC2)c1 [Example 302, N-cyclohexyl-2-{[(5-ethoxypyridin-3-yl)amino]sulfonyl}benzamide]	23	110	78.9	24.5
COc1cncc(NS(=O)(=O)c2ccccc2C(=O)NCC2(O)C3CC4CC(C3)CC2C4)c1 (centres unmarked) [Example 188, N-[(2-hydroxy-2-adamantyl)methyl]-2-{[(5-methoxypyridin-3-yl)amino]sulfonyl}benzamide]	8	12	36.4	3.4
O=C(NCc1ccccc1F)c1ccccc1S(=O)(=O)Nc1cccnc1 [Example 5, N-(2-fluorobenzyl)-2-[(pyridin-3-ylamino)sulfonyl]benzamide]	41	66	55.9	5.8
Cc1cncc(NS(=O)(=O)c2ccccc2C(=O)NC(C)C(C)C)c1 (centres unmarked) [Example 317, N-(1,2-dimethylpropyl)2{[(5-methylpyridin-3-yl)amino]sulfonyl}benzamide]	15	19	144	51.6
COc1cncc(NS(=O)(=O)c2ccc(F)cc2C(=O)N(C)C(C)C)c1 [Example 304, 5-fluoro-N-isopropyl-2-{[(5-methoxypyridin-3-yl)amino]sulfonyl}-N-methylbenzamide]	119	> 750	536	171
